Source: patent US20240083845A1 (priority 2020, published 2024)

Biological target: SARS-CoV-2 Mpro (Severe acute respiratory syndrome coronavirus 2, UniProt P0DTD1)
Assay: SARS-CoV-2 Mpro enzyme assay (FRET)
Type: biochemical
Conditions: FRET substrate Dabcyl-KTSAVLQSGFRKM-E(Edans)-Amide, 20 nM enzyme, 30 min preincubation at 30° C., mean n=2; read-out: SARS-CoV-2 Mpro enzyme assay pKi (converted)

Row | SMILES | Ki [µM]
1 | CC[C@@H](CC(=O)N[C@@H](CC(C)(C)C)C(=O)NC(C[C@@H]1CCNC1=O)C(=O)C(=O)NC1CC1)c1ccccc1 (single isomer, unassigned) [Example 14] | 0.00794
2 | CC[C@H](CC(=O)N[C@@H](CC(C)(C)C)C(=O)NC(C[C@@H]1CCNC1=O)C(=O)C(=O)NC1CC1)c1ccccc1 (single isomer, unassigned) [Example 15] | 0.01
3 | CC(C)(C)C[C@H](NC(=O)C[C@@H](c1ccccc1)C(F)(F)F)C(=O)NC(C[C@@H]1CCNC1=O)C(=O)C(=O)NC1CC1 (single isomer, unassigned) [Example 16] | 0.02
4 | CC(C)(C)C[C@H](NC(=O)C[C@H](c1ccccc1)C(F)(F)F)C(=O)NC(C[C@@H]1CCNC1=O)C(=O)C(=O)NC1CC1 (single isomer, unassigned) [Example 17] | 0.0126
5 | NC(=O)C(=O)C(C[C@@H]1CCNC1=O)NC(=O)[C@H](CC1CC1)NC(=O)/C=C/c1ccc(Cl)cc1F (stereo partly drawn) [Example 1, 3-((S)-2-((E)-3-(4-chloro-2-fluorophenyl)acrylamido)-3-cyclopropylpropanamido)-2-oxo-4-((S)-2-oxopyrrolidin-3-yl)butanamide] | 0.0126
6 | NC(=O)C(=O)C(C[C@@H]1CCNC1=O)NC(=O)[C@H](CC1CC1)NC(=O)/C=C/c1ccccc1 (stereo partly drawn) [Example 2, 3-((S)-2-cinnamamido-3-cyclopropylpropanamido)-2-oxo-4-((S)-2-oxopyrrolidin-3-yl)butanamide] | 0.02
7 | NC(=O)C(=O)C(C[C@@H]1CCNC1=O)NC(=O)[C@H](CC1CC1)NC(=O)OCc1ccccc1 (stereo partly drawn) [Example 3, benzyl ((2S)-1-((4-amino-3,4-dioxo-1-((S)-2-oxopyrrolidin-3-yl)butan-2-yl)amino)-3-cyclopropyl-1-oxopropan-2-yl)carbamate] | 0.0251
8 | NC(=O)C(=NO)C(C[C@@H]1CCNC1=O)NC(=O)[C@H](CC1CC1)NC(=O)/C=C/c1ccc(Cl)cc1F (stereo partly drawn) [Example 4, 3-((S)-2-((E)-3-(4-chloro-2-fluorophenyl)acrylamido)-3-cyclopropylpropanamido)-2-(hydroxyimino)-4-((S)-2-oxopyrrolidin-3-yl)butanamide] | 1
9 | CC(C)(C)NC(=O)C(=O)C(C[C@@H]1CCNC1=O)NC(=O)[C@H](CC1CC1)NC(=O)/C=C/c1ccc(Cl)cc1F (stereo partly drawn) [Example 5, N-(tert-butyl)-3-((S)-2-((E)-3-(4-chloro-2-fluorophenyl)acrylamido)-3-cyclopropylpropanamido)-2-oxo-4-((S)-2-oxopyrrolidin-3-yl)butanamide] | 0.501
10 | NC(=O)C(=O)C(CC1CC1)NC(=O)[C@H](CC1CC1)NC(=O)/C=C/c1ccc(Cl)cc1F (stereo partly drawn) [Example 6, 3-((S)-2-((E)-3-(4-chloro-2-fluorophenyl)acrylamido)-3-cyclopropylpropanamido)-4-cyclopropyl-2-oxobutanamide] | 5.01
11 | NC(=O)C(=O)C(CC1CCCC1)NC(=O)[C@H](CC1CC1)NC(=O)/C=C/c1ccc(Cl)cc1F (stereo partly drawn) [Example 7, 3-((S)-2-((E)-3-(4-chloro-2-fluorophenyl)acrylamido)-3-cyclopropylpropanamido)-4-cyclopentyl-2-oxobutanamide] | 7.94
12 | NC(=O)C(=O)C(C[C@@H]1CCNC1=O)NC(=O)[C@H](CC1CC1)NC(=O)CCc1ccccc1 (stereo partly drawn) [Example 8, 3-((S)-3-cyclopropyl-2-(3-phenylpropanamido)propanamido)-2-oxo-4-((S)-2-oxopyrrolidin-3-yl)butanamide] | 0.0501
13 | CC(C)(C)C[C@H](NC(=O)/C=C/c1ccc(Cl)cc1Cl)C(=O)NC(C#N)C[C@@H]1CCNC1=O (stereo partly drawn) [Example 9, (2S)-N-(1-Cyano-2-((S)-2-oxopyrrolidin-3-yl)ethyl)-2-((E)-3-(2,4-dichlorophenyl)acrylamido)-4,4-dimethylpentanamide] | 0.398
14 | CC(C)(C)C[C@H](NC(=O)/C=C/c1ccc(Cl)cc1Cl)C(=O)NC(C[C@@H]1CCNC1=O)C(=O)C(=O)NC1CC1 (stereo partly drawn) [Example 10, (2S)-N-(4-(Cyclopropylamino)-3,4-dioxo-1-((S)-2-oxopyrrolidin-3-yl)butan-2-yl)-2-((E)-3-(2,4-dichlorophenyl)acrylamido)-4,4-dimethylpentanamide] | 0.00631
15 | CC(C)(C)C[C@H](NC(=O)/C=C/c1ccc(Cl)cc1F)C(=O)NC(C[C@@H]1CCNC1=O)C(=O)C(=O)NC1CC1 (stereo partly drawn) [Example 11, (2S)-2-((E)-3-(4-chloro-2-fluorophenyl)acrylamido)-N-(4-(cyclopropylamino)-3,4-dioxo-1-((S)-2-oxopyrrolidin-3-yl)butan-2-yl)-4,4-dimethylpentanamide] | 100000
16 | C[C@@H](CC(=O)N[C@@H](CC(C)(C)C)C(=O)NC(C[C@@H]1CCNC1=O)C(=O)C(=O)NC1CC1)c1ccccc1 (stereo partly drawn) [Example 12, (2S)-N-(4-(cyclopropylamino)-3,4-dioxo-1-((S)-2-oxopyrrolidin-3-yl)butan-2-yl)-4,4-dimethyl-2-((S)-3-phenylbutanamido)pentanamide] | 0.0158
17 | C[C@H](CC(=O)N[C@@H](CC(C)(C)C)C(=O)NC(C[C@@H]1CCNC1=O)C(=O)C(=O)NC1CC1)c1ccccc1 (stereo partly drawn) [Example 13, (2S)-N-(4-(cyclopropylamino)-3,4-dioxo-1-((S)-2-oxopyrrolidin-3-yl)butan-2-yl)-4,4-dimethyl-2-((R)-3-phenylbutanamido)pentanamide] | 0.0158
18 | CC(C)C[C@H](NC(=O)/C=C/c1ccc(Cl)cc1F)C(=O)NC(C[C@@H]1CCNC1=O)C(=O)C(N)=O (stereo partly drawn) [Example 18, (2S)-N-(4-amino-3,4-dioxo-1-((S)-2-oxopyrrolidin-3-yl)butan-2-yl)-2-((E)-3-(4-chloro-2-fluorophenyl)acrylamido)-4-methylpentanamide] | 0.0126
19 | CCNC(=O)C(=O)C(C[C@@H]1CCNC1=O)NC(=O)[C@H](CC1CC1)NC(=O)/C=C/c1ccc(Cl)cc1F (stereo partly drawn) [Example 19, 3-((S)-2-((E)-3-(4-chloro-2-fluorophenyl)acrylamido)-3-cyclopropylpropanamido)-N-ethyl-2-oxo-4-((S)-2-oxopyrrolidin-3-yl)butanamide] | 0.0126
20 | NC(=O)C(=O)C(C[C@@H]1CCNC1=O)NC(=O)[C@H](CC1CC1)NC(=O)/C=C/c1ccc(Cl)cc1Cl (stereo partly drawn) [Example 20, 3-((S)-3-cyclopropyl-2-((E)-3-(2,4-dichlorophenyl)acrylamido)propanamido)-2-oxo-4-((S)-2-oxopyrrolidin-3-yl)butanamide] | 0.1
21 | O=C(/C=C/c1ccc(Cl)cc1F)N[C@@H](CC1CC1)C(=O)NC(C[C@@H]1CCNC1=O)C(=O)C(=O)NC1CC1 (stereo partly drawn) [Example 21, 3-((S)-2-((E)-3-(4-chloro-2-fluorophenyl)acrylamido)-3-cyclopropylpropanamido)-N-cyclopropyl-2-oxo-4-((S)-2-oxopyrrolidin-3-yl)butanamide] | 0.00794
22 | CC(C)(C)C[C@H](NC(=O)/C=C/c1ccc(Cl)cc1F)C(=O)NC(C[C@@H]1CCNC1=O)C(=O)C(N)=O (stereo partly drawn) [Example 22, (2S)-N-(4-amino-3,4-dioxo-1-((S)-2-oxopyrrolidin-3-yl)butan-2-yl)-2-((E)-3-(4-chloro-2-fluorophenyl)acrylamido)-4,4-dimethylpentanamide] | 0.00631
23 | CCNC(=O)C(=O)C(C[C@@H]1CCNC1=O)NC(=O)[C@H](CC(C)(C)C)NC(=O)/C=C/c1ccc(Cl)cc1F (stereo partly drawn) [Example 23, (2S)-2-((E)-3-(4-chloro-2-fluorophenyl)acrylamido)-N-(4-(ethylamino)-3,4-dioxo-1-((S)-2-oxopyrrolidin-3-yl)butan-2-yl)-4,4-dimethylpentanamide] | 0.0126
24 | CCNC(=O)C(=O)C(C[C@@H]1CCNC1=O)NC(=O)[C@H](CC1CC1)NC(=O)/C=C/c1ccc(Cl)cc1Cl (stereo partly drawn) [Example 24, 3-((S)-3-cyclopropyl-2-((E)-3-(2,4-dichlorophenyl)acrylamido)propanamido)-N-ethyl-2-oxo-4-((S)-2-oxopyrrolidin-3-yl)butanamide] | 0.0126
25 | O=C(/C=C/c1ccc(Cl)cc1Cl)N[C@@H](CC1CC1)C(=O)NC(C[C@@H]1CCNC1=O)C(=O)C(=O)NC1CC1 (stereo partly drawn) [Example 25, N-cyclopropyl-3-((S)-3-cyclopropyl-2-((E)-3-(2,4-dichlorophenyl)acrylamido)propanamido)-2-oxo-4-((S)-2-oxopyrrolidin-3-yl)butanamide] | 0.01
26 | CCNC(=O)C(=O)C(C[C@@H]1CCNC1=O)NC(=O)[C@H](CC(C)(C)C)NC(=O)/C=C/c1ccc(Cl)cc1Cl (stereo partly drawn) [Example 26, (2S)-2-((E)-3-(2,4-dichlorophenyl)acrylamido)-N-(4-(ethylamino)-3,4-dioxo-1-((S)-2-oxopyrrolidin-3-yl)butan-2-yl)-4,4-dimethylpentanamide] | 0.01
27 | CC(C)(C)C[C@H](NC(=O)/C=C/c1ccc(Cl)cc1Cl)C(=O)NC(C[C@@H]1CCNC1=O)C(=O)C(N)=O (stereo partly drawn) [Example 27, (2S)-N-(4-amino-3,4-dioxo-1-((S)-2-oxopyrrolidin-3-yl)butan-2-yl)-2-((E)-3-(2,4-dichlorophenyl)acrylamido)-4,4-dimethylpentanamide] | 0.00794
28 | O=C(/C=C/c1ccc(Cl)cc1F)N[C@@H](CC1CC1)C(=O)NC(C[C@@H]1CCNC1=O)C(=O)C(=O)NC1CC1 (stereo partly drawn) [Example 28, 3-((S)-2-((E)-3-(4-chloro-2-fluorophenyl)acrylamido)-3-cyclopropylpropanamido)-N-cyclopropyl-2-oxo-4-((S)-2-oxopyrrolidin-3-yl)butanamide] | 0.0158
29 | O=C(N[C@@H](CC1CC1)C(=O)NC(C[C@@H]1CCNC1=O)C(=O)C(=O)NC1CC1)OCc1ccccc1 (stereo partly drawn) [Example 29, benzyl ((2S)-3-cyclopropyl-1-((4-(cyclopropylamino)-3,4-dioxo-1-((S)-2-oxopyrrolidin-3-yl)butan-2-yl)amino)-1-oxopropan-2-yl)carbamate] | 0.0158
30 | O=C(CCc1ccc(Cl)cc1Cl)N[C@@H](CC1CC1)C(=O)NC(C[C@@H]1CCNC1=O)C(=O)C(=O)NC1CC1 (stereo partly drawn) [Example 30, N-cyclopropyl-3-((S)-3-cyclopropyl-2-(3-(2,4-dichlorophenyl)propanamido)propanamido)-2-oxo-4-((S)-2-oxopyrrolidin-3-yl)butanamide] | 0.02
